In US20240270749A1, “1,2,4-TRIAZOLO[1,5-A]PYRIMIDINE-BASED SLC16A3 INHIBITORS AND THEIR THERAPEUTIC USE” (CEMM - FORSCHUNGSZENTRUM FÜR MOLEKULARE MEDIZIN GMBH, priority 2021, published 2024):
Entries after “also recorded” stand apart in the source; their conditions may differ. Where two headings read alike, the source gives them in different places.

Experiments:
HAP1 SLC16A1^−/− cells [1] = assay: Synthetic lethality guided viability screening (CellTiter Glo), HAP1 SLC16A1-/- cells (SLC16A3-dependent); assay type: cell-based; settings: for viability at 10 µM / IC50: Homo sapiens; for viability at 10 µM: read-out: HAP1 SLC16A1^−/− % of viability; for IC50: from dose response curves
Method: (§1) Compounds were printed to individual wells of 384 well plates (Corning) with Echo acoustic liquid dispenser (Labcyte). HAP1 cells were seeded using a dispenser (Thermo Fischer Scientific) in density 1,000 cells per well in 50 μl. As controls, DMSO or Bortezomib treatments were used. Viability of cells was assessed after 72 hours with CellTiter Glo (Promega) and % of controls were calculated based on RLU values in DMSO (100%) and Bortezomib (0%) wells. First screening was performed in 10 μM final concentration. Second screening was performed in technical duplicates, in 4 point dose response setting, with concentrations ranging from 13-0.5 μM. Third screening was performed in technical triplicates in 6 point dose response setting, with concentrations ranging from 27-0.11 μM. LAMA84 cells were used in density 3,000 cells per well. AZD3965, BAY-8002, syrosingopine and compounds obtained from third party vendors were tested in 96 well plates, with 2,500 cells per well with manual seeding and treatment. Compound efficacy was determined either by comparing % of control, or by IC50 estimation based on dose response curves (calculated with R package drc, or with GraphPad Prism).
(§2) Table 1: Results of synthetic lethality guided chemical screening assay. HAP1 WT, HAP1 SLC16A1^−/− or HAP1 SLC16A3^−/− cell lines were treated with presented compounds for 72 hours and viability was determined by Cell titer glo assay (Promega). Data are presented either as a percentage of viability in HAP1 SLC16A1^−/− cells compared to controls (DMSO=100% and Bortezomib=0%) upon single dose treatment (10 μM) or as IC50 values obtained from dose response curves.

HAP1 SLC16A3^−/− cells [2] = assay: Synthetic lethality guided viability screening (CellTiter Glo), HAP1 SLC16A3-/- cells (SLC16A1-dependent); assay type: cell-based; settings: for IC50: Homo sapiens, HAP1, 72 hours, Cell titer glo, from dose response curves, read-out: HAP1 SLC16A31^−/− IC50
Method: as §1, §2

HAP1 WT cells = assay: Synthetic lethality guided viability screening (CellTiter Glo), HAP1 WT cells; assay type: cell-based; settings: Homo sapiens, 72 hours, Cell titer glo, from dose response curves
Method: as §1, §2

NCIH358 cells = assay: Lactate Glo lactate accumulation, NCIH358 lung cancer cells; assay type: cell-based; settings: 10 μM, 6 hours
Method: (§3) Protocol for lactate glo was modified based on Benjamin D et al., Cell Reports, 2018, 25(11):3047-3058.e4. Cells were seeded in 96 well plate in density 30,000 cells per well. Next day cells were treated with tested compounds, AZD3965 and syrosingopine (all in final concentration of 10 μM) or DMSO. After 6 hours of incubation at 37° C., cells were washed twice with PBS, lysed with 0.2N HCl, neutralized with 1M Tris-base (Sigma) and incubated for 1 hour at RT with lactate glo reagents (Promega). Lactate accumulation was then estimated based on luminescence signal.

HAP1 SLC16A1^−/− cells [3] = assay: Growth curve, HAP1 SLC16A1-/- cells; assay type: cell-based; settings: different concentrations; counted 24 h, 48 h, 72 h
Method: Cells were seeded in 6 well plate in density of 15,000 cells per well in the presence of different concentrations of tested compounds in DMSO, or matching DMSO concentrations. Cells were washed with PBS, harvested with trypsin and counted with CASY counter (Roche) 24 h, 48 h and 72 h after the seeding. Cell number obtained at 24 h was set as 0, for each time point and concentration two wells were harvested and counted.

NCIH441 cells = assay: Lactate Glo lactate accumulation, NCIH441 lung cancer cells; assay type: cell-based; settings: 10 μM, 6 hours
Method: as §3

[4] = tested on: HAP1 dependent on SLC16A7; assay: Viability of HAP1 cells dependent on SLC16A7; assay type: cell-based; settings: SLC16A7 overexpressed in HAP1 SLC16A3^−/−, SLC16A1 knocked out
Description: To test this, the inventors overexpressed SLC16A7 or SLC16A8 in HAP1 SLC16A3^−/− cells and knocked out SLC16A1 using CRISPR/Cas9. […]

HAP1 SLC16A3^−/− cells [5] = assay: Lactate Glo lactate accumulation, HAP1 SLC16A3-/- cells; assay type: cell-based; settings: 10 μM, 6 hours
Method: as §3

SLC16A3 = target: T1, SLC16A3 (Homo sapiens, UniProt O15427); assay: Cellular Thermal Shift Assay (CETSA), HEK293T lysates with HIBIT-tagged SLC16A3; assay type: binding; settings: HEK293T lysate, HIBIT-tagged SLC16A3, split-nano luciferase readout
T1 construct: expressed in transfected cells; lysate supernatant used
T1 sequence (O15427 1-465): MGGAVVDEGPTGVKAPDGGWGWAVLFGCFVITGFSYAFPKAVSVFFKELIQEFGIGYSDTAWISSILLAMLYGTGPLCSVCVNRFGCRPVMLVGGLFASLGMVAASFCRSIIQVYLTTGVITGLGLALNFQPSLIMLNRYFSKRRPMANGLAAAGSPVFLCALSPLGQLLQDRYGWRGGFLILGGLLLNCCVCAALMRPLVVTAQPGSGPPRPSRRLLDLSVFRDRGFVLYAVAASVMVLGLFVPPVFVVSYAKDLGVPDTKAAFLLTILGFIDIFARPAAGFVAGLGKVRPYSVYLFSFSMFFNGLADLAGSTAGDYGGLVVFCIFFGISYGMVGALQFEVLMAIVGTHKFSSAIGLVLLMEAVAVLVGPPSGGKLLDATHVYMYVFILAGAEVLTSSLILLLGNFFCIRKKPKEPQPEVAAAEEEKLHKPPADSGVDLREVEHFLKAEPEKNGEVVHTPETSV
Method: HEK293T cells with stable expression of HIBIT-tagged SLC16A3 were lysed as described in Hashimoto M et al., ACS Chemical Biology, 2018, 13(6):1480-86. Lysates were then centrifugated at 14,000 RPM, 20 min at 4° C. Supernatant were next incubated with tested compounds or DMSO on ice for 1 hour. After that samples were aliquoted to PCR strips, heated in gradient thermocycler for 6 min and let cool down at room temperature (RT) for 3 min. Samples were then centrifugated at 14,000 RPM, 40 min at 4° C. and protein abundance in supernatants was determined using HIBIT lytic detection system (Promega) in 384 well plate. Reagents for HIBIT detection were diluted in lysis buffer (Hashimoto M et al., loc. cit.) instead of buffer provided with kit. All measurements were done in technical triplicate.

HAP1 SLC16A1^−/− cells [6] = assay: Lactate Glo lactate accumulation, HAP1 SLC16A1-/- cells; assay type: cell-based; settings: 10 μM, 6 hours
Method: as §3

[7] = tested on: cells dependent on SLC16A3 in HAP1 and LAMA84 cell lines; assay: Selectivity counter screen, HAP1 and LAMA84 cell line panel; assay type: cell-based; settings: panel incl. LAMA84 sgRen/sgSLC16A1/sgSLC16A3, HAP1 dependent on SLC16A7 or SLC16A8, rescue lines
Method: as §1
To get further insights into the selectivity and mode of action of these hits, the inventors created a selection of compounds with similar structure to their hits from the whole library and tested those further. […]

[8] = HAP1, single dose 10 μM, 72 hours, Cell titer glo, compared to controls DMSO=100%, Bortezomib=0%

| SMILES | IC50 (HAP1 SLC16A1^−/− cells [1]; HAP1, 72 hours, Cell titer glo) [µM] | IC50 (HAP1 SLC16A3^−/− cells [2]) [µM] | IC50 (HAP1 WT cells) [µM] | further results |
| --- | --- | --- | --- | --- |
| Cc1nc2nc(C)c(CCC(=O)Nc3ccc(Br)c(C)c3)c(C)n2n1 [Compound 11] | – | – | – | viability at 10 µM (HAP1 SLC16A1^−/− cells [1]; [8]): 33.7% |
| CSc1nc2nc(C)c(CCC(=O)Nc3ccc(C)cc3)c(C)n2n1 [Compound 3] | 2.34 | > 30 | > 30 | – |
| Cc1nc2nc(C(F)(F)F)nn2c(C)c1CCC(=O)Nc1ccc(S(=O)(=O)N2CCCC2)cc1 [Compound 6] | 0.41 | > 30 | > 30 | – |
| Cc1nc2nc(C(F)(F)F)nn2c(C)c1CCC(=O)Nc1cnc2ccccc2c1 [Compound 8] | 0.25 | > 30 | > 30 | lactate accumulation in NCIH358 cells (NCIH358 cells): confirmed the lactate accumulation in both cell lines; growth rate / proliferation of HAP1 SLC16A1^−/− cells (HAP1 SLC16A1^−/− cells [3]): confirmed the growth reducing effect; also recorded: slowed down the proliferation in a dose-dependent manner; lactate accumulation in NCIH441 cells (NCIH441 cells): confirmed the lactate accumulation in both cell lines |
| CCOC(=O)Oc1c(OC)cc(C(=O)O[C@@H]2C[C@@H]3CN4CCc5c([nH]c6cc(OC)ccc56)[C@H]4C[C@@H]3[C@H](C(=O)OC)[C@H]2OC)cc1OC [syrosingopine, reference compound] | – | – | – | effect on viability of HAP1 SLC16A1^−/− cells (in words) (HAP1 SLC16A1^−/− cells [1]): decreased viability |
| CCOc1ccc(NC(=O)CCc2c(C)nc3nc(C)nn3c2C)cc1 [Compound 15] | – | – | – | viability at 10 µM (HAP1 SLC16A1^−/− cells [1]; HAP1, 72 h): 38.5% |
| CCOc1ccc(NC(=O)CCc2c(C)nc3ncnn3c2C)cc1 [Compound 10] | 7.07 | > 30 | > 30 | viability at 10 µM (HAP1 SLC16A1^−/− cells [1]; [8]): 70.8% |
| Cc1cc(C)cc(NC(=O)CCc2c(C)nc3nc(C(F)(F)F)nn3c2C)c1 [Compound 2] | 4.13 | > 30 | > 30 | – |
| Cc1nc2nc(C)c(CCC(=O)Nc3ccc(Br)cc3)c(C)n2n1 [Compound 16] | – | – | – | viability at 10 µM (HAP1 SLC16A1^−/− cells [1]; [8]): 38.7% |
| Cc1cc(NC(=O)CCc2c(C)nc3nc(C(F)(F)F)nn3c2C)ccc1N1CCN(C)CC1 [Compound 5] | 5.87 | > 30 | > 30 | – |
| COc1ccc(NC(=O)CCc2c(C)nc3nc(C)nn3c2C)cc1 [Compound 17] | – | – | – | viability at 10 µM (HAP1 SLC16A1^−/− cells [1]; HAP1, 72 h): 44.4% |
| CSc1nc2nc(C)c(CCC(=O)Nc3cc(C)cc(C)c3)c(C)n2n1 [Compound 4] | 1.83 | > 30 | > 30 | – |
| O=C(Nc1ccccc1C(=O)O)c1cc(S(=O)(=O)c2ccccc2)ccc1Cl [BAY-8002, reference compound] | – | – | – | effect on viability of HAP1 SLC16A3^−/− cells (in words) (HAP1 SLC16A3^−/− cells [2]): reduced viability; killing of HAP1 cells dependent on SLC16A7 (in words) [4]: can be killed |
| Cc1nc2ncnn2c(C)c1CCC(=O)Nc1ccc(S(=O)(=O)N2CCCCCC2)cc1 [Compound 9] | 1.98 | > 30 | > 30 | – |
| Cc1nc2nc(C)c(CCC(=O)Nc3ccc(C)c(C)c3)c(C)n2n1 [Compound 13] | – | – | – | viability at 10 µM (HAP1 SLC16A1^−/− cells [1]; [8]): 37%; lactate accumulation in HAP1 SLC16A3^−/− cells (HAP1 SLC16A3^−/− cells [5]): no accumulation was observed; also recorded: did not affect lactate accumulation; shift in melting temperature of SLC16A3 (CETSA) (SLC16A3): showed a shift in melting temperature of SLC16A3; lactate accumulation in HAP1 SLC16A1^−/− cells (HAP1 SLC16A1^−/− cells [6]): lactate accumulation comparable to control (syrosingopine); also recorded: significant lactate accumulation was observed; selective killing in HAP1 and LAMA84 cell line panel (in words) [7]: selectively kill only cells dependent on SLC16A3 |
| Cc1ccc(NC(=O)CCc2c(C)nc3nc(C(F)(F)F)nn3c2C)cc1 [Compound 1] | 3.32 | > 30 | > 30 | – |
| Cc1[nH]nc(C(F)(F)F)c1Cc1sc2c(c1C(=O)N1C[C@](C)(O)CO1)c(=O)n(C)c(=O)n2C(C)C [AZD3965, reference compound] | – | – | – | effect on viability of HAP1 SLC16A3^−/− cells (in words) (HAP1 SLC16A3^−/− cells [2]): reduced viability; killing of HAP1 cells dependent on SLC16A7 (in words) [4]: can be killed |
| CCc1ccc(NC(=O)CCc2c(C)nc3nc(C)nn3c2C)cc1 [Compound 14] | – | – | – | viability at 10 µM (HAP1 SLC16A1^−/− cells [1]; [8]): 37.5% |
| Cc1nc2nc(C(F)(F)F)nn2c(C)c1CCC(=O)Nc1cccnc1 [Compound 18] | 8.41 | > 30 | > 30 | – |
| Cc1nc2nc(C(F)(F)F)nn2c(C)c1CCC(=O)Nc1ccncc1 [Compound 7] | 11.2 | > 30 | > 30 | – |
| CCc1cccc(NC(=O)CCc2c(C)nc3nc(C)nn3c2C)c1 [Compound 12] | – | – | – | viability at 10 µM (HAP1 SLC16A1^−/− cells [1]; [8]): 36.4% |
| Cc1nc2nc(C(F)(F)F)nn2c(C)c1CCC(=O)Nc1ccccc1 [Compound 19] | 8.94 | > 30 | > 30 | – |
